Tests used:
[1] = background, literature and labels; cited from earlier work
[2] = system: HK cleavage in undiluted plasma; experiment: DXS-activated cleavage of HK in undiluted plasma (immunoblot); assay type: biochemical, human; settings: 300 nM PKa inhibitor, 20 min incubation with DXS
Description: DXS-activated cleavage of HK in undiluted plasma was performed in the absence or presence of 300 nM PKa inhibitor and quantified by SDS-PAGE gel electrophoresis, using 7.5% Criterion TGX Precast gels (Biorad). Transfer was made onto Immunobilon-FL PVDF membrane. Image analysis was done using the LICOR imaging system. Mouse monoclonal anti-HK antibody (MAB15692, R&D systems) was used for traditional immunoblotting. Data presented as % of HK remaining after 20 min incubation with DXS compared to HK levels in unactivated plasma (Table 1).

[3] = biological target: T1, plasma kallikrein catalytic activity (Homo sapiens, UniProt P03952); experiment: Phase 1 SAD / food effect: ex vivo PKa catalytic activity in DXS-stimulated undiluted plasma
T1 construct: from tissue; host or cells: undiluted plasma of healthy male study participants after oral dosing, stimulated ex vivo with dextran sulfate
T1 sequence (P03952 391-638 limits assumed): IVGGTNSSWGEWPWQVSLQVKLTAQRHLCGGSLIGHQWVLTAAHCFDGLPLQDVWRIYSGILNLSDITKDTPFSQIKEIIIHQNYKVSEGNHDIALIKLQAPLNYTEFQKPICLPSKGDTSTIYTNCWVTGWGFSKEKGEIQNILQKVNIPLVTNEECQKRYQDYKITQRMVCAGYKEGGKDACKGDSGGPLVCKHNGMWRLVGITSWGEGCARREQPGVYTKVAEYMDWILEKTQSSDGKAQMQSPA
T1 sequence (P03952 20-390 partner limits assumed): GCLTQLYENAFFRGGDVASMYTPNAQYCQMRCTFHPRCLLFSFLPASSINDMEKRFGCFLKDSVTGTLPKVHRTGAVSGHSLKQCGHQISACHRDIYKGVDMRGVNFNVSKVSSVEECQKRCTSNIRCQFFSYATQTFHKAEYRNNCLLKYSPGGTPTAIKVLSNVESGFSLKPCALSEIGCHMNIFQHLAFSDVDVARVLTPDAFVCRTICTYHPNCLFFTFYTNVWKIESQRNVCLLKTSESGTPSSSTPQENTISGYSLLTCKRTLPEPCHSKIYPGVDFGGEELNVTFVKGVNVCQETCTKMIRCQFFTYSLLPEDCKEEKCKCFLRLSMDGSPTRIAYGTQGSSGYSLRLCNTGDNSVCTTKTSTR
Description: (§1) This study was a randomized, double-blind, placebo-controlled single ascending dose (SAD) and crossover studies for food effect and capsule/tablet formulations.
PD measurements were determined in dextran sulfate (DXS) stimulated undiluted plasma using a fluorogenic enzyme assay and capillary based HK cleavage immunoassay.
The time until appearance of detectable amidolytic enzyme activity in DXS-stimulated plasma (lag time) was calculated from the catalytic activity assay. The detection sensitivity of the rate of catalytic activity in plasma based on using a Spark (Tecan) fluorimeter is a fluorescence increase to reach 1ΔF unit/sec.

HK cleavage = experiment: Phase 1 SAD: ex vivo DXS-stimulated cleavage of HK, Wes capillary immunoassay; set-up: species or system human; settings: 600 mg orally in capsules, up to 12 hrs post-dose
Description: DXS-stimulated cleavage of HK, in undiluted plasma was quantified by capillary-based immunoassay on the Wes System (ProteinSimple) using monoclonal anti-HK antibody and chemiluminescence-based detection. Plasma kallikrein mediated HK cleavage in undiluted citrated human plasma was induced by contact system activation with DXS (6.25 μg/ml) at 4° C. in selected samples from the SAD phase.

plasma prekallikrein = experiment: Phase 1 SAD: ex vivo DXS-stimulated cleavage of plasma prekallikrein, Wes immunoassay; set-up: species or system human; settings: 600 mg orally in capsules, up to 12 hrs post-dose
Excerpt: (§2) DXS-stimulated cleavage of plasma prekallikrein and Factor XII (FXII) were quantified by capillary-based immunoassay on the Wes System (ProteinSimple) analogously.

Factor XII (FXII) = experiment: Phase 1 SAD: ex vivo DXS-stimulated cleavage of Factor XII / generation of FXIIa, Wes immunoassay; set-up: species or system human; settings: 600 mg orally in capsules, up to 12 hrs post-dose
Excerpt: as §2

[4] = Phase 1 SAD: plasma pharmacokinetics (LC MS/MS); assay type: in vivo, human
Description: Samples for pharmacokinetic (PK) and PD assessment were taken at repeated intervals over 48 hours.
Plasma samples used for PK assessment were analysed using a validated liquid chromatography tandem mass spectrometry (LC MS/MS) method.

[5] = Phase 1 SAD and food effect study: safety and tolerability; assay type: in vivo, human; settings: phase I trial, healthy males
Excerpt: as §1

[6] = system: HK cleavage in undiluted citrated human plasma; experiment: Protection of HK from PKa-mediated cleavage in DXS-stimulated HAE and control plasma (WES immunoassay); assay type: biochemical; settings: HAE and healthy control plasma stimulated with dextran sulfate
Description: High molecular weight kininogen (HK) cleavage in undiluted citrated human plasma was induced by contact system activation with dextran sulfate (DXS, Sigma #31395-10G; 6.25 μg/ml) on wet ice. […] HAE plasma was obtained from HAE subjects (n=6) and C1-inhibitor deficiency was confirmed by western blotting. Protection of HK from PKa mediated cleavage in DXS-stimulated whole undiluted plasma was then determined by two methods; traditional western blotting and a semi-automated capillary-based immunoassay.
Capillary-based immunoassay on the WES System (ProteinSimple):
Preparation of samples: Combine one part 5× fluorescent master mix with four parts of the 1:200 plasma sample. Vortex to mix. Heat the samples+fluorescent master mix and the biotinylated ladder at 95° C. for 5 minutes, vortex, and load onto the WES plate. Monoclonal anti-human HK antibody was used for this chemiluminescence-based detection method using the Wes System (ProteinSimple).
Analysis: Collect the peak area measurement obtained in the Compass software (cbz file) for the full-length HK molecular weight of the respective time-point sample with DXS-induced activation. The peak area is defined as the area calculated for the spectral peak profile for HK. To measure the plasma kallikrein inhibition by the compound, the percent full-length HK detected was calculated.

[7] = Phase 1 multiple dose study: safety, tolerability, ECG; assay type: in vivo, human; settings: healthy adults
Description: This is a phase 1, double-blind, placebo-controlled, multiple-dose, multiple-cohort study to evaluate safety and tolerability of the compound as well as of the ECG effects of the compound formulated as 100 mg Film Coated Tablets in healthy adult male and female subjects.
During the study, oral doses of 600 mg of the compound as Film Coated Tablets (six 100 mg tablets) or 6 matching placebo tablets will be administered once every 8 hours (Cohort 1) every 4 hours (Cohort 2), or every 2 hours (Cohort 3 and 4) to healthy adult male and female subjects up to a total dose of 1800 mg. In Cohorts 1, 2 and 3, 6 subjects will receive the compound as 100 mg Film Coated Tablets and 2 subjects will receive the placebo for a total of 8 subjects per cohort. In Cohort 4, 12 subjects will receive the compound as 100 mg Film Coated Tablets and 6 subjects will receive the placebo for a total of 18 subjects.
A Holter monitor will be attached to each subject in order to continuously record ECGs. The monitor will be attached 1 hour before the first dose and will remain attached until after the final blood sample collection. The electrodes for the Holter monitor will be checked by a member of the clinic staff at appropriate intervals to ensure they are attached.

Human plasma kallikrein = biological target: T2, Human plasma kallikrein (Homo sapiens, UniProt P03952); experiment: Plasma kallikrein inhibitory activity in vitro, purified enzyme, fluorogenic substrate; assay type: biochemical; settings: 25° C., substrate H-DPro-Phe-Arg-AFC
T2 construct: purchased Protogen
T2 sequence (P03952 391-638 limits assumed): as the sequence (P03952 391-638 limits assumed) above
T2 sequence (P03952 20-390 partner limits assumed): as the sequence (P03952 20-390 partner limits assumed) above
Description: Human plasma kallikrein (Protogen) was incubated at 25° C. with the fluorogenic substrate H-DPro-Phe-Arg-AFC and various concentrations of the test compound. Residual enzyme activity (initial rate of reaction) was determined by measuring the change in […] at 410 nm and the IC50 value for the test compound was determined.

purified PKa = purified PKa (Homo sapiens, UniProt P03952); experiment: Rate of formation of the enzyme-inhibitor complex (Kon); assay type: biochemical
purified PKa, sequence (P03952 391-638 limits assumed): as the sequence (P03952 391-638 limits assumed) above
purified PKa, sequence (P03952 20-390 partner limits assumed): as the sequence (P03952 20-390 partner limits assumed) above
Description: The rate of formation of the enzyme-inhibitor complex (Kon) was determined using purified PKa rapidly mixed with a solution containing fluorogenic substrate and a concentration range of inhibitor. The time-dependent establishment of inhibition was then used to calculate the rate of formation of the enzyme-inhibitor complex for each concentration of inhibitor. The Kon was calculated by plotting the rate of inhibition versus the inhibitor concentration. Data in Table 1 are presented in μM^−1 sec^−1.

[8] = biological target: PKa in DXS-activated plasma (Homo sapiens, UniProt P03952); experiment: Catalytic activity of PKa in dextran sulfate-activated plasma; assay type: biochemical; settings: read-out: IC50 plasma enzyme
PKa in DXS-activated plasma, sequence (P03952 391-638 limits assumed): as the sequence (P03952 391-638 limits assumed) above
PKa in DXS-activated plasma, sequence (P03952 20-390 partner limits assumed): as the sequence (P03952 20-390 partner limits assumed) above
Description: Catalytic activity of PKa in dextran sulfate-activated (DXS, Sigma; 10 μg/ml) plasma (1:4 diluted or undiluted, VisuCon-F control plasma, Affinity Biologicals Inc) was determined by the time-dependent hydrolysis of fluorogenic substrate.

[9] = biological target: T3, plasma kallikrein-kinin pathway enzyme activity in pre-activated plasma (Homo sapiens, UniProt P03952); experiment: Inhibition of enzyme activity of pre-activated undiluted plasma (compound added after DXS); assay type: biochemical; settings: added 3.5 minutes post DXS; compound 300, 1000, 3000 nM; C1-INH 3000 nM
T3 construct: from tissue
T3 sequence (P03952 391-638 limits assumed): as the sequence (P03952 391-638 limits assumed) above
T3 sequence (P03952 20-390 partner limits assumed): as the sequence (P03952 20-390 partner limits assumed) above
Description: The ability of the compound to inhibit the enzyme activity of pre-activated plasma was assessed by addition of the compound after DXS stimulation. Aliquots of plasma (20 μL) were mixed with a 2.5 μL solution containing […] fluorogenic substrate (H-DPro-Phe-Arg-AFC) and a 2.5 μL solution of dextran sulphate (DXS; 100 μg/mL) which acted as an activator of the plasma kallikrein-kinin pathway. Enzyme activity was immediately measured by monitoring the accumulation of fluorescence liberated from the substrate by substrate cleavage over 16 minutes. At 3.5 minutes post DXS addition 5 μl of inhibitors or water control are were added into each well. The compound was tested at concentrations of 300, 1000 and 3000 nM. C1-INH at a concentration of 3000 nM and vehicle controls were also included.

[10] = 3 x 600 mg every 8, 4 or 2 hours

Molecule: N#Cc1cccc([C@@H](NCC2CC2)c2ccc(F)c(NC(=O)c3cc(C(F)(F)F)nn3-c3cccc(CN)c3)c2)c1 [Berotralstat]
- reported adverse reactions / risks [1]: higher doses were associated with more gastrointestinal adverse effects

Molecule: COCc1nn(Cc2ccc(Cn3ccccc3=O)cc2)cc1C(=O)NCc1nccc(OC)c1F [Compound of Formula A, N-[(3-fluoro-4-methoxypyridin-2-yl)methyl]-3-(methoxymethyl)-1-({4-[(2-oxopyridin-1-yl)methyl]phenyl}methyl)pyrazole-4-carboxamide]
- HK protection (% of HK remaining vs unactivated plasma) [2]: 85%
- lag time (time until appearance of catalytic activity during contact system activation) ([3]; 600 mg dose, tablet formulation): increases the time until appearance of catalytic activity
- inhibition at 600 mg ([3]; 600 mg tablet, by 30 minutes, fed and fasted state): > 90%
- detectable catalytic activity after prolonged DXS activation ([3]; 600 mg tablet, early time points post-dose): did not display detectable catalytic activity
- food effect on pharmacodynamic (PD) profile ([3]; 600 mg tablet, fed and fasted state): no significant food-effect
- inhibition at 160 mg ([3]; po, cohort 6 (160 mg oral), between 45 min and 2 hr post-dose): > 90%
- inhibition at 300 mg ([3]; po, cohort 7 (300 mg oral), between 20 min and 4 hr post-dose): > 90%
- effect on HK cleavage (HK cleavage): reduces HK cleavage
- effect on PPK cleavage (plasma prekallikrein): reduces PPK cleavage
- effect on generation of FXIIa (Factor XII (FXII)): reduces the generation of FXIIa
- plasma concentration ([4]; following a dosage amount of at least about 60 mg): at least 500 ng/mL
- plasma exposure ([4]; oral capsule, fasted, 5 mg to 600 mg): rapid and dose-dependent plasma exposure
- serious adverse events [5]: No serious adverse events were reported
- tolerability signals [5]: no tolerability signals
- protection against HK cleavage [6]: dose dependent protection against HK cleavage
- serious adverse events [7, 10]: No serious adverse events were reported
- severity of reported adverse events [7, 10]: mild
- effects on the studied ECG parameters ([7]; 3 x 600 mg): No clinically relevant effects

Molecule: C1-INH: C1 inhibitor (C1-INH, Sigma Cat #E0518), comparator [Compound C1-INH]
- IC50 (Human plasma kallikrein): 50 nM
- Kon (purified PKa): 40000 M⁻¹ s⁻¹
- IC50 [8]: 1700 nM
- inhibition of enzyme activity after activation of plasma [9]: slower action

Molecule: Ecallantide
- reported adverse reactions / risks [1]: risk of anaphylactic reactions

B1: lanadelumab: recombinant fully human IgG1 kappa light chain monoclonal antibody, active substance of Takhzyro® (antibody, chains of the INN, looked up, V domains shown)
VH: EVQLLESGGGLVQPGGSLRLSCAASGFTFSHYIMMWVRQAPGKGLEWVSGIYSSGGITVYADSVKGRFTISRDNSKNTLYLQMNSLRAEDTAVYYCAYRRIGVPRRDEFDIWGQGTMVTVSS
VL: DIQMTQSPSTLSASVGDRVTITCRASQSISSWLAWYQQKPGKAPKLLIYKASTLESGVPSRFSGSGSGTEFTLTISSLQPDDFATYYCQQYNTYWTFGQGTKVEIK
- reported adverse reactions / risks [1]: hypersensitivity, injection site pain, injection site erythema, and injection site bruising

Source: patent publication US20220226293A1, “TREATMENTS OF ANGIOEDEMA” (KALVISTA PHARMACEUTICALS LIMITED, priority 2019, published 2022)
